Literature values as cited in US10543293B2, “Medical dressing” (BSN MEDICAL GMBH, priority 2013, dated 2020).

Assays:
[1] = generally assumed
human fibroblasts = conditions: NO concentrations employed in vitro
keratinocytes = conditions: NO concentrations employed in vitro; human keratinocytes
endothelial cells = conditions: NO concentrations employed in vitro; human endothelial cells

[N]=O [NO, nitric oxide]
diffusion coefficient of NO relative to oxygen or carbon monoxide (at 37° C., higher than that of oxygen or carbon monoxide): approximately 1.4 times | diffusion path that can be achieved in the tissues (calculated on the basis of the diffusion coefficient): 500 μm | maximum solubility of NO in aqueous solutions [1]: approximately 2 mM | toxic effects (human fibroblasts): did not display any toxic effects | toxic effects (keratinocytes): did not display any toxic effects | toxic effects (endothelial cells): did not display any toxic effects
